{"source": "paper PMC8014119", "about": "(Angewandte Chemie (International Ed. in English), 2021)", "key": {"[1]": {"target": "His-tagged SARS-CoV-2 Mpro (Severe acute respiratory syndrome coronavirus 2, UniProt P0DTD1)", "test": "Mpro inhibition in the presence of mammalian cell lysates", "assay_type": "biochemical", "details": "50 µM substrate, 10 min, 37 °C"}, "human cathepsin B": {"target": "human cathepsin B (Homo sapiens, UniProt P07858)", "test": "Inhibition of human cathepsin B", "assay_type": "biochemical", "details": "in words"}, "SARS-CoV-2 Mpro": {"target": "SARS-CoV-2 Mpro (Severe acute respiratory syndrome coronavirus 2, UniProt P0DTD1)", "assay_type": "biochemical"}, "human cathepsin L": {"target": "human cathepsin L (Homo sapiens, UniProt P07711)", "sequence (P07711 114-333)": "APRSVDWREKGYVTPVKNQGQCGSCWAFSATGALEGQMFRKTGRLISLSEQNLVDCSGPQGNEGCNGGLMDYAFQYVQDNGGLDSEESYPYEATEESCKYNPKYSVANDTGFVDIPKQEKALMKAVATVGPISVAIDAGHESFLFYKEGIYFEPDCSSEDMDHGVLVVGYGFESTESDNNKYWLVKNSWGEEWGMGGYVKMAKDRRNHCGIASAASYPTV", "test": "Inhibition of human cathepsin L", "assay_type": "biochemical", "details": "in words"}, "SARS-CoV-2": {"system": "SARS-CoV-2", "details": "Vero E6 cells; cited from earlier work"}, "[2]": {"details": "Table 3, 5-halopyridin-3-yl esters, kinetic analysis as Table 2"}, "[3]": {"details": "Table 2, azapeptide nitriles, 50 µM substrate, pH 7.2, 37 °C, 60 min"}}, "note": "Where two headings read alike, the source gives them in different places.", "data": [{"compound": "O=C(Oc1cncc(Cl)c1)c1cc2cc(Cl)ccc2[nH]1", "note": "[Compound 17]", "values": [{"measurement": "Mpro inhibition in HEK and A549 cell lysates", "setting": "[1]; inhibitor 1 μM", "result": "virtually complete inhibition"}, {"measurement": "cathepsin B inhibition", "setting": "human cathepsin B", "result": "did not inhibit"}, {"measurement": "k inac/K i", "setting": "SARS-CoV-2 Mpro; [2]", "result": "29 100 M^−1 s^−1"}, {"measurement": "cathepsin L inhibition", "setting": "human cathepsin L", "result": "did not inhibit"}]}, {"compound": "CC[C@H](NC(=O)OCc1ccccc1)C(=O)N[C@H](C(=O)N[C@@H](Cc1ccccc1)C(=O)N(C)N(C#N)CCC(N)=O)C(C)(C)C", "note": "[Compound 8]", "values": [{"measurement": "Mpro inhibition in HEK and A549 cell lysates", "setting": "[1]; inhibitor 1 μM", "result": "virtually complete inhibition"}]}, {"compound": "CC[C@H](NC(=O)OCc1ccccc1)C(=O)N[C@H](C(=O)N[C@@H](CC(C)C)C(=O)N(C)N(C#N)CCC(N)=O)C(C)(C)C", "note": "[Compound 7]", "values": [{"measurement": "k inac/K i", "setting": "SARS-CoV-2 Mpro; [3]", "result": "21 400 M^−1 s^−1"}]}, {"compound": "CN(C(=O)[C@H](Cc1ccccc1)NC(=O)OCc1ccccc1)N(C#N)CCC(N)=O", "note": "[Compound 4]", "values": [{"measurement": "Mpro inhibition in HEK and A549 cell lysates", "setting": "[1]; inhibitor 10 μM", "result": "virtually complete inhibition"}, {"measurement": "k inac/K i", "setting": "SARS-CoV-2 Mpro; [3]", "result": 1150, "unit": "M⁻¹ s⁻¹"}]}, {"compound": "O=C(Oc1cncc(Cl)c1)c1cccc2c1CCN2", "note": "[5‐chloropyridin‐3‐yl dihydroindole‐4‐carboxylate]", "values": [{"measurement": "activity against infectivity and replication of SARS-CoV-2", "setting": "SARS-CoV-2", "result": "active"}]}, {"compound": "CC(C)C[C@H](NC(=O)OCc1ccccc1)C(=O)N(C)N(C#N)CCC(N)=O", "note": "[Compound 3]", "values": [{"measurement": "k inac/K i", "setting": "SARS-CoV-2 Mpro; [3]", "result": 489, "unit": "M⁻¹ s⁻¹"}]}, {"compound": "CN(C(=O)[C@H](Cc1ccccc1)NC(=O)[C@@H](NC(=O)OCc1ccccc1)C(C)(C)C)N(C#N)CCC(N)=O", "note": "[Compound 6]", "values": [{"measurement": "Mpro inhibition in HEK and A549 cell lysates", "setting": "[1]; inhibitor 1 μM", "result": "virtually complete inhibition"}, {"measurement": "k inac/K i", "setting": "SARS-CoV-2 Mpro; [3]", "result": "36 000 M^−1 s^−1"}]}, {"compound": "CC(C)C[C@H](NC(=O)[C@@H](NC(=O)OCc1ccccc1)C(C)(C)C)C(=O)N(C)N(C#N)CCC(N)=O", "note": "[Compound 5]", "values": [{"measurement": "k inac/K i", "setting": "SARS-CoV-2 Mpro; [3]", "result": 2060, "unit": "M⁻¹ s⁻¹"}]}, {"compound": "O=C(Oc1cncc(Cl)c1)c1ccc2[nH]c3c(c2c1)CCCC3", "note": "[Compound 19]", "values": [{"measurement": "k inac/K i", "setting": "SARS-CoV-2 Mpro; [2]", "result": 5620, "unit": "M⁻¹ s⁻¹"}]}, {"compound": "O=C(Oc1cncc(Br)c1)c1cccc2[nH]ccc12", "note": "[Compound 18]", "values": [{"measurement": "k inac/K i", "setting": "SARS-CoV-2 Mpro; [2]", "result": "24 000 M^−1 s^−1"}]}]}
